Experimental data as given in US20050215543A1, “Methods of treating HIV infection” (priority 2004, published 2005).

Key:
uninfected cells = assay: Cytotoxicity assay of drug combinations, uninfected cells, XTT assay; assay type: cell-based; conditions: combination with Compound 1 at the highest concentrations tested, 6 days
Experimental: Drug Susceptibility and Cytotoxicity Assays. […] Each drug ratio consisted of an array of 3-fold serial dilutions, and was performed in quadruplicate. The plates were incubated at 37° C./5% CO2. […] On day-five post-infection, 20 μl from each well was harvested and quantitated by a reverse transcriptase (RT) assay, or in samples involving non-nucleoside RT inhibitors, an MTS assay. The PM-1 cells infected with HIV-1 Bal and used for studying the combinations with CCR5 inhibitors were incubated for six days. On day-six post-infection, 20 μl from each well was harvested, 20- and 50-fold diluted and quantitated by p24 assay. Cytotoxicity assays were performed using uninfected cells, exposed to the same drug combinations, and incubated for six days. Cell viability was determined by an XTT assay. The CC50 values were calculated by using the exponential form of the median effect equation as mentioned below for calculation of EC50.

HIV-1 LAI = assay: microbe, parasite or virus in culture; conditions: for Combination Indices at % HIV Inhibition (Confidence Interval) 50%: 50% HIV inhibition; for Combination Indices at % HIV Inhibition (Confidence Interval) 50% / Combination Indices at % HIV Inhibition (Confidence Interval) 75% / Combination Indices at % HIV Inhibition (Confidence Interval) 90%: 95% CI in parenthesis; for Combination Indices at % HIV Inhibition (Confidence Interval) 75%: 75% HIV inhibition; for Combination Indices at % HIV Inhibition (Confidence Interval) 90%: 90% HIV inhibition
HIV-1 Bal = assay: Drug susceptibility assay, PM-1 cells infected with HIV-1 Bal, p24 assay readout (combinations with CCR5 inhibitors); assay type: cell-based; conditions: for Combination Indices at % HIV Inhibition (Confidence Interval) 50%: 50% HIV inhibition; for Combination Indices at % HIV Inhibition (Confidence Interval) 50% / Combination Indices at % HIV Inhibition (Confidence Interval) 75% / Combination Indices at % HIV Inhibition (Confidence Interval) 90%: p24, 95% CI in parenthesis; for Combination Indices at % HIV Inhibition (Confidence Interval) 75%: 75% HIV inhibition; for Combination Indices at % HIV Inhibition (Confidence Interval) 90%: 90% HIV inhibition
Experimental: Virus and cell lines. The T-cell lines, MT-2 and PM-1 were obtained through the AIDS Research and Reference Reagent Program, NIAID, and were contributed by Dr. D. Richman and Dr. R. Gallo, respectively. Both cell lines were cultured in RPMI 1640 medium supplemented with 10% fetal bovine serum, 2 mM L-glutamine and sub-cultured twice a week. The LAI strain of HIV-1 was obtained from the Fred Hutchinson Cancer Research Center, and the Bal strain was from NIH. Both virus stocks were amplified and titered in MT-2 cells (LAI) and PM-1 cells (Bal) using a virus infectivity assay.
Drug Susceptibility and Cytotoxicity Assays. For drug susceptibility assays, MT-2 cells were infected with HIV-1 LAI (or PM-1 cells with HIV-1 Bal) at an MOI of 0.005, and seeded into 96-well microtiter plates (0.1×10^6 cells/ml) containing serial dilutions of test compounds. […] Each drug ratio consisted of an array of 3-fold serial dilutions, and was performed in quadruplicate. The plates were incubated at 37° C./5% CO2. The MT-2 cells infected with HIV-1 LAI were incubated for 5 days. On day-five post-infection, 20 μl from each well was harvested and quantitated by a reverse transcriptase (RT) assay, or in samples involving non-nucleoside RT inhibitors, an MTS assay. The PM-1 cells infected with HIV-1 Bal and used for studying the combinations with CCR5 inhibitors were incubated for six days. On day-six post-infection, 20 μl from each well was harvested, 20- and 50-fold diluted and quantitated by p24 assay. Cytotoxicity assays were performed using uninfected cells, exposed to the same drug combinations, and incubated for six days. Cell viability was determined by an XTT assay. The CC50 values were calculated by using the exponential form of the median effect equation as mentioned below for calculation of EC50.
Analysis of Drug Combination Effects. For determination of CI values, drugs were diluted in a fixed ratio and multiple ratios were analyzed. The drug serial dilutions spanned a range of concentrations near the EC50 value of each compound, so that equivalent antiviral activities could be compared. Concentration-response curves were estimated for each individual drug and every combination using the median-effect equation. The equation was fit using a nonlinear regression routine (Proc Nlin) in PC SAS version 8.01 (SAS Institute Inc., SAS Version 8.01, Cary, N.C.: SAS Institute Inc., 1990).
In this equation, Fa stands for “fraction affected,” and represents the fraction of the viral load that has been inactivated. […] ED50 is drug concentration that is expected to reduce the amount of virus by 50%, and m is a parameter that reflects the slope of the concentration-response curve.
To assess antiviral effects of different drug combination treatments, combination indices (CIs) were calculated according to Chou and Rideout. The combination index was computed as CI=[D]1/[Dm]1+[D]2/[Dm]2
In this equation [Dm]1 and [Dm]2 are the concentrations of drugs that would individually produce a specific level of effect, while [D]1 and [D]2 are the concentrations of drugs in combination that would produce the same level of effect.
Theoretically, additivity is implied if the CI is equal to one, synergy if the CI is less than one, and antagonism if the CI is greater than one. […] At best, we can construct a range that contains the likely values for the CI, given the noise in the data. In this report, these ranges are reported in parentheses next to each point estimate of the CI. […] If the range fell entirely above 1.0, we would infer antagonistic behavior. If the range were to include 1.0, we would infer additivity.
In carrying out the combination experiments below, the EC50 for Compound 1 and each comparator compound was determined during the course of each study, and used in the subsequent data analysis.

[1] = combination with Compound 1, EC50 ratio 1:1 (Compound 1:comparator)
[2] = combination with Compound 1, EC50 ratio 1:1
[3] = combination with Compound 1, EC50 ratio 1:2.5
[4] = combination with Compound 1, EC50 ratio 2.5:1
[5] = combination with Compound 1, EC50 ratio 1:1, PM-1/HIV-1 Bal
[6] = combination with Compound 1, EC50 ratio 1:2.5, PM-1/HIV-1 Bal
[7] = combination with Compound 1, EC50 ratio 2.5:1, PM-1/HIV-1 Bal

Row | Compound | cytotoxicity of the drug combination (uninfected cells) | Combination Indices at % HIV Inhibition (Confidence Interval) 50% (HIV-1 LAI; [1]) | Combination Indices at % HIV Inhibition (Confidence Interval) 75% (HIV-1 LAI; [2]) | Combination Indices at % HIV Inhibition (Confidence Interval) 90% (HIV-1 LAI; [2]) | Combination Indices at % HIV Inhibition (Confidence Interval) 50% (HIV-1 LAI; [3]) | Combination Indices at % HIV Inhibition (Confidence Interval) 75% (HIV-1 LAI; [3]) | Combination Indices at % HIV Inhibition (Confidence Interval) 90% (HIV-1 LAI; [3]) | Combination Indices at % HIV Inhibition (Confidence Interval) 50% (HIV-1 LAI; [4]) | Combination Indices at % HIV Inhibition (Confidence Interval) 75% (HIV-1 LAI; [4]) | Combination Indices at % HIV Inhibition (Confidence Interval) 90% (HIV-1 LAI; [4]) | further results
1 | CON(Cc1ccc(F)cc1)C(=O)C=C(O)C(=O)O [Compound 2, 3-[(4-fluorobenzyl)methoxycarbamoyl]-2-hydroxyacrylic acid] | No significant cytotoxicity | 0.92 (0.77, 1.06) | 0.90 (0.70, 1.10) | 0.89 (0.58, 1.21) | 0.71 (0.60, 0.82) | 0.66 (0.51, 0.80) | 0.61 (0.40, 0.82) | 0.41 (0.36, 0.47) | 0.41 (0.33, 0.48) | 0.40 (0.28, 0.52) | EC50 (HIV-1 LAI; Human immunodeficiency virus 1, MT2, 120 h): 39 nM
2 | COC[C@@H](c1ccc(C(F)(F)F)cc1)N1CCN(C2(C)CCN(C(=O)c3c(C)ncnc3C)CC2)C[C@@H]1C [Sch-D] |  |  |  |  |  |  |  |  |  |  | Combination Indices at % HIV Inhibition (Confidence Interval) 50% (HIV-1 Bal; [5]): 0.49 (0.43, 0.55); Combination Indices at % HIV Inhibition (Confidence Interval) 75% (HIV-1 Bal; [5]): 0.41 (0.34, 0.49); Combination Indices at % HIV Inhibition (Confidence Interval) 90% (HIV-1 Bal; [5]): 0.36 (0.26, 0.46); Combination Indices at % HIV Inhibition (Confidence Interval) 50% (HIV-1 Bal; [6]): 0.71 (0.62, 0.81); Combination Indices at % HIV Inhibition (Confidence Interval) 75% (HIV-1 Bal; [6]): 0.55 (0.44, 0.65); Combination Indices at % HIV Inhibition (Confidence Interval) 90% (HIV-1 Bal; [6]): 0.44 (0.31, 0.57); Combination Indices at % HIV Inhibition (Confidence Interval) 50% (HIV-1 Bal; [7]): 0.51 (0.45, 0.56); Combination Indices at % HIV Inhibition (Confidence Interval) 75% (HIV-1 Bal; [7]): 0.55 (0.47, 0.63); Combination Indices at % HIV Inhibition (Confidence Interval) 90% (HIV-1 Bal; [7]): 0.61 (0.46, 0.75); EC50 (HIV-1 Bal; single drug, PM-1 cells, HIV-1 Bal, MOI 0.005, 6 days, p24 assay (CCR5 inhibitors)): 0.5 nM; Overall Result (HIV-1 Bal; two-drug combination with Compound 1, all ratios and effect levels, PM-1/HIV-1 Bal, p24 assay): moderate synergistic to synergistic
3 | enfuvirtide | No significant cytotoxicity | 0.53 (0.46, 0.59) | 0.51 (0.42, 0.59) | 0.57 (0.42, 0.72) | 0.27 (0.21, 0.32) | 0.32 (0.22, 0.42) | 0.43 (0.22, 0.64) | 0.41 (0.30, 0.51) | 0.57 (0.37, 0.78) | 0.90 (0.36, 1.44) | EC50 (HIV-1 LAI; single drug, MT-2 cells, HIV-1 LAI, MOI 0.005, 5 days, RT assay): 3 nM
